ChEMBL document CHEMBL6121069, “A Medicinal Chemistry Perspective on Protein Tyrosine Phosphatase Nonreceptor Type 2 in Tumor Immunology” (J Med Chem, 2025)
*1 amine or outer side, *2 acyl side, *3 side chain or, on linkers, in order; H or OH if unused. Where a SMILES comes first, the peptide text is derived from it. [ ]: non-standard residue; d: D form. The star is where a group is joined. NHCH2(1,3-C6H4)CH2CO = O=C(Cc1cccc(CN[*:1])c1)[*:2]; F2Pmp = N[C@@H](Cc1ccc(C(F)(F)P(=O)(O)O)cc1)C(=O)O; Phenylacetyl(4-OH,3-OMe) = COc1cc(CC(=O)*)ccc1O; Benzoyl(3-Br,4-Me) = Cc1ccc(C(=O)*)cc1Br; X1 = Cc1ncsc1-c1ccc([C@H](C)N*)cc1; Hyp = O=C(O)[C@@H]1C[C@@H](O)CN1; Tle = CC(C)(C)[C@H](N)C(=O)O

molecular target: T1, Tyrosine-protein phosphatase non-receptor type 2 (Homo sapiens, UniProt P17706); experiment: not given; settings: not given
T1 sequence (P17706 whole entry): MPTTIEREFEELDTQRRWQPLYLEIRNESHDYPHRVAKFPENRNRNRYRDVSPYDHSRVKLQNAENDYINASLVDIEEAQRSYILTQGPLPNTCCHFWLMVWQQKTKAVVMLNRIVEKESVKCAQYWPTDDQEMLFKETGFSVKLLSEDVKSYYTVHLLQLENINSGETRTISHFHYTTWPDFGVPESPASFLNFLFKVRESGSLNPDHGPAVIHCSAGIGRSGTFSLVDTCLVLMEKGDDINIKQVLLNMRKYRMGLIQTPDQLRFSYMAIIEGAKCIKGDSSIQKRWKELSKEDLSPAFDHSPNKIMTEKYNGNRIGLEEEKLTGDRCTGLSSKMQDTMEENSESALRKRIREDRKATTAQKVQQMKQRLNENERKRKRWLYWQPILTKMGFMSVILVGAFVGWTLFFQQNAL

Structure (SMILES) | Ki [µM]
CC1CCN=C(Nc2cc(O)c(N3CC(=O)NS3(=O)=O)c(F)c2)N1 (centres undefined) | 0.005
Cc1ccnc(Nc2cc(O)c(N3CC(=O)NS3(=O)=O)c(F)c2)n1 | ≥ 0.1
O=C1CN(c2c(O)cc(NC3=NCCCN3)cc2F)S(=O)(=O)N1 | 0.005
CC(C)Cc1cnc(Nc2cc(O)c(N3CC(=O)NS3(=O)=O)c(F)c2)nc1O | < 0.001
Cc1cnc(Nc2cc(O)c(N3CC(=O)NS3(=O)=O)c(F)c2)nc1O | < 0.001
Cc1cc(O)nc(Nc2cc(O)c(N3CC(=O)NS3(=O)=O)c(F)c2)n1 | 0.001

system: B16-F10; experiment: cells; settings: Mus musculus
Description: Antiproliferative activity against mouse B16-F10 cells assessed as inhibition of cell growth

Structure (SMILES) | IC50 [µM]
O=C1CN(c2c(O)cc(CC3CCCCNC3)cc2F)S(=O)(=O)N1 (centres undefined) | > 100
CC(C)CCN1CCC(Cc2cc(O)c(N3CC(=O)NS3(=O)=O)c(F)c2)C1 (centres undefined) | 8.43
O=C1CN(c2c(O)cc(CC3CCCNC3)cc2F)S(=O)(=O)N1 (centres undefined) | 25.8
O=C1CN(c2c(O)cc(CC3CCN(CC4CC4)C3)cc2F)S(=O)(=O)N1 (centres undefined) | 17.4
O=C1CN(c2c(O)cc(CC3CCCN(CC4CC4)C3)cc2F)S(=O)(=O)N1 (centres undefined) | > 46.4
CC(C)CCN1CCCC(Cc2cc(O)c(N3CC(=O)NS3(=O)=O)c(F)c2)C1 (centres undefined) | > 100
O=C1CN(c2c(O)cc(CC3CCNC3)cc2F)S(=O)(=O)N1 (centres undefined) | 7.43

molecular target: T1, Tyrosine-protein phosphatase non-receptor type 2; experiment: not given; settings: not given; remark: another data set of the same source

Structure (SMILES) | IC50 [µM]
O=C1SN(CCOc2ccc([N+](=O)[O-])cc2)CN1Cc1ccccc1 | 1.51
CCN1CN(Cc2ccc(Br)cc2)C(=O)S1 | 0.52
CC(C)CCn1cc(-c2ccc(O)c(N3CC(=O)NS3(=O)=O)c2F)cn1 | < 1
COc1ccc2cc(O)c(N3CC(=O)NS3(=O)=O)c(F)c2n1 | < 1
CC(C)CCCc1cc2c(F)c(N3CC(=O)NS3(=O)=O)c(O)cc2n(C)c1=O | < 1
O=C1CN(c2c(O)cc3c(c2F)CNCCC3)S(=O)(=O)N1 | 1.91
O=C1SN(CCN2CCN(Cc3ccc4c(c3)OCO4)CC2)CN1Cc1ccccc1 | 5.29
CC(C)CCc1ccc2ccc(N3CC(=O)NS3(=O)=O)cc2n1 | > 10
CC(C)CCn1cnc(-c2ccc(O)c(N3CC(=O)NS3(=O)=O)c2F)c1 | < 1
CC(C)CCc1ccc2cc(O)c(N3CC(=O)NS3(=O)=O)cc2n1 | < 1
CCN1CCc2cc(O)c(N3CC(=O)NS3(=O)=O)c(F)c2CC1C (centres undefined) | 0.212
O=C(O)CN1CCN(CCN2CN(Cc3ccccc3)C(=O)S2)CC1 | 8.77
CC(C)CCn1cnc2cc(O)c(N3CC(=O)NS3(=O)=O)c(F)c2c1=O | > 10
CC(C)CCn1ccc(-c2ccc(O)c(N3CC(=O)NS3(=O)=O)c2F)n1 | < 1
CC(C)CCn1ccc(-c2ccc(O)c(N3CC(=O)NS3(=O)=O)c2F)c1 | < 1
CCN1CN(Cc2ccc(Cl)cc2)C(=O)S1 | 0.33
CC(C)N1CCN(CCN2CN(Cc3ccccc3)C(=O)S2)CC1 | 7.1
CCN1CN(Cc2ccc(I)cc2)C(=O)S1 | 0.37
CC(C)CCNC(=O)Nc1cc(O)c(N2CC(=O)NS2(=O)=O)c(F)c1 | 0.005
CC(C)CCc1ccc2cc(O)c(N3CC(=O)NS3(=O)=O)c(F)c2n1 | < 1
CCN1CN(Cc2ccc(F)cc2)C(=O)S1 | 0.28
N[C@@H]1CCc2cc(O)c(N3CC(=O)NS3(=O)=O)c(F)c2CC1 | 0.00567
O=C1CN(c2c(O)cc3c(c2F)C[C@H](NCCC(F)F)CC3)S(=O)(=O)N1 | 0.001
CC(C)CCn1ccc2cc(O)c(N3CC(=O)NS3(=O)=O)c(F)c2c1=O | > 1
O=C1CN(c2c(O)cc3c(c2F)C[C@H](NCCCC(F)(F)F)CC3)S(=O)(=O)N1 | 0.001
CC1(C)CCC(NCc2ccc(O)c(N3CC(=O)NS3(=O)=O)c2F)CC1 | 10
CC(C)CCOc1ccc2cc(O)c(N3CC(=O)NS3(=O)=O)c(F)c2n1 | < 1
CC(C)CCn1cc(-c2ccc(O)c(N3CC(=O)NS3(=O)=O)c2F)nn1 | < 1
CN(Cc1cc(O)c(N2CC(=O)NS2(=O)=O)c(F)c1)C1CCC(C)(C)CC1 | 0.05
O=C1CN(c2c(O)cc(NC(=O)N[C@H](CO)c3ccccc3)cc2F)S(=O)(=O)N1 (racemic) | 0.005

system: B16-F10; experiment: cells; settings: Mus musculus; remark: another data set of the same source
Description: Antiproliferative activity against mouse B16-F10 cells

Structure (SMILES) | IC50 [µM]
CC1Cc2c(cc(O)c(N3CC(=O)NS3(=O)=O)c2F)CCN1 (centres undefined) | 0.27
O=C1CN(c2c(O)cc3c(c2F)CCNCC3)S(=O)(=O)N1 | 0.35
CC1CCN=C(Nc2cc(O)c(N3CC(=O)NS3(=O)=O)c(F)c2)N1 (centres undefined) | 5
O=C1CN(c2c(O)cc(NC(=O)NC3CCCCC3)cc2F)S(=O)(=O)N1 | < 5
CC(C)CCN[C@@H]1C[C@H]2C[C@@H]1c1c2cc(O)c(N2CC(=O)NS2(=O)=O)c1F | 7.82
O=C1CN(c2c(O)cc3c(c2F)C[C@H](NCCC2CCC2)CC3)S(=O)(=O)N1 | < 1
Cc1ccnc(Nc2cc(O)c(N3CC(=O)NS3(=O)=O)c(F)c2)n1 | ≥ 100
Cc1ccc(NCc2cc(O)c(N3CC(=O)NS3(=O)=O)c(F)c2)nn1 | 0.63
CCN[C@@H]1CCc2cc(O)c(N3CC(=O)NS3(=O)=O)c(F)c2CC1 | 54
CC(C)CCN[C@@H]1CNc2cc(O)c(N3CC(=O)NS3(=O)=O)c(F)c2C1 | 1.45
Cc1ccnc(NCc2cc(F)c(N3CC(=O)NS3(=O)=O)c3[nH]ncc23)c1 | 0.35
O=C1CN(c2c(O)cc3c(c2F)C[C@H](NCCC2CCCC2)CC3)S(=O)(=O)N1 | < 0.05
O=C1CN(c2c(O)cc(NC3=NCCCN3)cc2F)S(=O)(=O)N1 | < 5
COc1ccnc(NCc2cc(O)c(N3CC(=O)NS3(=O)=O)c(F)c2)c1 | 0.14
CC(C)CCNC(=O)Nc1cc(O)c(N2CC(=O)NS2(=O)=O)c(F)c1 | < 5
COc1cc(C)nc(NCc2cc(O)c(N3CC(=O)NS3(=O)=O)c(F)c2)c1 | 0.05
CC(C)Cc1cnc(Nc2cc(O)c(N3CC(=O)NS3(=O)=O)c(F)c2)nc1O | 5
Cc1cnc(Nc2cc(O)c(N3CC(=O)NS3(=O)=O)c(F)c2)nc1O | 50
CC1(C)CCC(NCc2cc(O)c(N3CC(=O)NS3(=O)=O)c(F)c2)CC1 | 81
O=C1CN(c2c(O)cc3c(c2F)C[C@H](NCCC2CC2)CC3)S(=O)(=O)N1 | 0.22
COc1cccc(NCc2cc(O)c(N3CC(=O)NS3(=O)=O)c(F)c2)n1 | 8.66
COc1cc(C)nc(NCc2cc(F)c(N3CC(=O)NS3(=O)=O)c3[nH]ncc23)c1 | 0.02
N[C@@H]1CCc2cc(O)c(N3CC(=O)NS3(=O)=O)c(F)c2CC1 | 1.63
O=C1CN(c2c(O)cc3c(c2F)C[C@H](NCCC(F)F)CC3)S(=O)(=O)N1 | 1.5
O=C1CN(c2c(O)cc3c(c2F)C[C@H](NCCCC(F)(F)F)CC3)S(=O)(=O)N1 | < 0.05
Cc1cc(O)nc(Nc2cc(O)c(N3CC(=O)NS3(=O)=O)c(F)c2)n1 | < 5
CN(Cc1cc(O)c(N2CC(=O)NS2(=O)=O)c(F)c1)C1CCC(C)(C)CC1 | 14.9
O=C1CN(c2c(O)cc(NC(=O)N[C@H](CO)c3ccccc3)cc2F)S(=O)(=O)N1 (racemic) | < 5

molecular target: T2, Tyrosine-protein phosphatase non-receptor type 1 (Homo sapiens, UniProt P18031); experiment: not given; settings: not given
T2 sequence (P18031 whole entry): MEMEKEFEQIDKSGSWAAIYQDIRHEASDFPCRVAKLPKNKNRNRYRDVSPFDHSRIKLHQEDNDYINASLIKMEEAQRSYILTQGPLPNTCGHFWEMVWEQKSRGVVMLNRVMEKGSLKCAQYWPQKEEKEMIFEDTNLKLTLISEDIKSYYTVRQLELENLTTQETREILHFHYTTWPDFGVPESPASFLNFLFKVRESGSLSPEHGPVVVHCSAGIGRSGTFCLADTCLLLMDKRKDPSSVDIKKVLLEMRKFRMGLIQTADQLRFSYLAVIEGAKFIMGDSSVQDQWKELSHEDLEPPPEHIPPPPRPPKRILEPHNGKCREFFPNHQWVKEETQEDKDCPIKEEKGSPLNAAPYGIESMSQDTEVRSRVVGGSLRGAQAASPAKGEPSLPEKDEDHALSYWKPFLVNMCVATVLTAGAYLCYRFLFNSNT

Structure (SMILES) | IC50 [µM]
O=P(O)(O)C(F)(F)c1ccc(CC(Cc2ccc(-c3ccccc3)cc2)(c2ccccc2)n2nnc3ccccc32)cc1 (centres undefined) | 0.04
COc1ccc(-c2ccc[nH]2)cc1N1CC(=O)NS1(=O)=O | 0.08

molecular target: Protein cereblon/Tyrosine-protein phosphatase non-receptor type 2 (Homo sapiens, UniProt P17706+Q96SW2); experiment: not given; settings: hek293t
Sequence (Q96SW2 whole entry, one chain of several): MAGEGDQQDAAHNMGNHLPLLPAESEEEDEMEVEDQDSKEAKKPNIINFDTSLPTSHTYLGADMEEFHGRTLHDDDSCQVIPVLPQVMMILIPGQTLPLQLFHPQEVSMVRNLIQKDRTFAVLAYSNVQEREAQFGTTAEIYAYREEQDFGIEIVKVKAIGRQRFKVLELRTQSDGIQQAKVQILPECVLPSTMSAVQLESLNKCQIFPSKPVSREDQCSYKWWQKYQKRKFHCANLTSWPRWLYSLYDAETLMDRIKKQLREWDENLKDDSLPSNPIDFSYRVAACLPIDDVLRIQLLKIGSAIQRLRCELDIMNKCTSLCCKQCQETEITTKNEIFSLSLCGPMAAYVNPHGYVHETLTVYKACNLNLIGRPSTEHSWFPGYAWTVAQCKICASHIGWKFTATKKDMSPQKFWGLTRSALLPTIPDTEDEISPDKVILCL

Structure (SMILES) | DC50 [µM]
Cn1c(=O)n(C2CCC(=O)NC2=O)c2cccc(C3CCN(C(=O)c4ccc5c(F)c(N6CC(=O)NS6(=O)=O)c(O)cc5c4)CC3)c21 (centres undefined) | 0.01
Cc1nn(CC(=O)Nc2ccc3c(F)c(N4CC(=O)NS4(=O)=O)c(O)cc3c2)c(C)c1-c1ccc2c(c1)n(C)c(=O)n2C1CCC(=O)NC1=O (centres undefined) | < 0.05
O=C(CCOCCn1cc(C2(Nc3cccc4c3C(=O)N(C3CCC(=O)NC3=O)C4=O)CC2)nn1)NCCOc1ccc2cc(O)c(N3CC(=O)NS3(=O)=O)c(F)c2c1 (centres undefined) | > 1
Cn1c(=O)n(C2CCC(=O)NC2=O)c2cccc(C3CCN(CCOCCC(=O)NCCOc4ccc5cc(O)c(N6CC(=O)NS6(=O)=O)c(F)c5c4)CC3)c21 (centres undefined) | > 1
Cn1c(=O)n(C2CCC(=O)NC2=O)c2ccc(C3CCN(C(=O)CNc4ccc5c(F)c(N6CC(=O)NS6(=O)=O)c(O)cc5c4)CC3F)cc21 (centres undefined) | < 0.01
COc1cc(CC(=O)N[C@@H](Cc2ccccc2)C(=O)N[C@@H](Cc2ccc(C(F)(F)P(=O)(O)O)cc2)C(=O)N[C@@H](CCCCNC(=O)c2ccc(C)c(Br)c2)C(=O)NCc2cccc(CC(=O)N[C@H](C(=O)N3C[C@H](O)C[C@H]3C(=O)N[C@@H](C)c3ccc(-c4scnc4C)cc3)C(C)(C)C)c2)ccc1O ({Phenylacetyl(4-OH,3-OMe)}-F[F2Pmp]K(Benzoyl(3-Br,4-Me))[NHCH2(1,3-C6H4)CH2CO][Tle][Hyp]-X1) | 0.0048
